# Assay results taken from patent US5541232A, “Treatment of multidrug resistant diseases” (Chemex Pharmaceuticals, Inc., priority 1994, dated 1996).
# “Also recorded” adds a separate entry of the source. Like-named read-outs stand apart in the source and are kept apart here.
# What was measured:
# [1] = test system: KB-3-1 human cervical carcinoma cells; assay: modulation of VBL toxicity (colony formation), KB-3-1; type: cell-based; settings: 25 μM masoprocol, 10 days, 37° C.
# Protocol: (§1) Drug-sensitive KB-3-1 cells and the drug resistant subline (KB-GRC-1) were obtained from Dr. Igor Roninson (University of Illinois, College of Medicine, Chicago, Ill.). Cells were maintained in Dulbecco's modified Eagle's medium supplemented with 10% fetal bovine serum and 2 mM glutamine. The KB-GRC-1 cells were maintained in medium supplemented with 6 ng/ml colchicine.
# To test the modulation of VBL toxicity by masoprocol, cells which had been seeded at 200-300 cells/dish were incubated in media containing various concentrations of VBL in the absence or presence of 25 μM masoprocol. After an incubation period of 10 days at 37° C. the cells were fixed and stained, and the number of colonies per dish were counted and expressed as a percent of the number of colonies formed in control conditions. 1.
# human cancer patients = settings: cited from earlier work
# CAK-1 Renal cancer cells = assay: in vitro cytotoxicity anti tumor activity; type: cell-based; settings: read-out: IC50
# [2] = test system: OVCAR3 ovarian cancer cells; assay: in vitro cytotoxicity anti tumor activity; type: cell-based; settings: Homo sapiens, read-out: IC50
# [3] = test system: Detroit 551 Skin Fibroblasts; assay: in vitro cytotoxicity, normal cells; type: cell-based; settings: Homo sapiens, read-out: IC50
# LOX-IMVI Melanoma cells = assay: in vitro cytotoxicity anti tumor activity; type: cell-based; settings: Homo sapiens, read-out: IC50
# [4] = test system: several types of cancer cells; settings: Cancer Chemotherapy National Service Center; cited from earlier work
# [5] = test system: GRC-1 multidrug resistant human cervical carcinoma cells; assay: initial influx of VBL, GRC-1; type: cell-based; settings: 50 μM masoprocol added concurrently with VBL, 3 to 24 seconds; FIG. 4a
# Protocol: A further test was conducted to show the effect of masoprocol on the initial influx of VBL. Cells were exposed to media containing [^3 H]VBL with and without 50 μM masoprocol. After incubation times ranging from 3 seconds to 24 seconds, the media was removed. The amount of VBL taken up by the cells was determined as described in A. The data was summarized from four replicate experiments. FIG. 4apresents the results for the GRC-1 cell line, and FIG. 4b for the KB-3-1 cell line.
# [6] = test system: Lung (NCI-H23) cancer cells; assay: in vitro cytotoxicity anti tumor activity; type: cell-based; settings: Homo sapiens, read-out: IC50
# [7] = test system: MCF7/0 human breast adenocarcinoma cells; assay: flow cytometry P-glycoprotein function assay of doxorubicin efflux, MCF7/0 (doxorubicin sensitive); type: cell-based
# Protocol: The following tests were preformed to determine the effect of NDGA on efflux of doxorubicin (hereinafter sometimes referred to as DOX) for doxorubicin sensitive MCF7/0 and doxorubicin resistant MCF7/ADR human breast adenocarcinoma cells in vitro.
# The cells were exposed to 50 μg/ml NDGA for 24 hrs prior to loading with DOX (doxorubicin) at 37° C. […] PBS. Flow analysis of cell efflux of DOX was collected over 30 minutes using the time parameter.
# Procedure for P-Glycoprotein (PGP) Function Assay of Doxorubicin Efflux is shown hereunder.
# 1. […] Store at room temperature.
# 2. Doxorubicin (GFW=580) Make a solution of doxorubicin to contain 10 μg/ml. Store frozen at 0° C.
# 4. NDGA (MW=302.36) Make a solution of NDGA to contain 50 μg/ml. Store frozen at 0° C.
# 5. MCF7/0 (Doxorubicin sensitive) and MCF7/ADR (Doxorubicin resistant), human breast adenocarcinoma cell lines.
# 1. Make up 2×10^6 cells per ml in PBS. Expose 1 ml of cells to 50 μg of NDGA for 24 hrs at 37° C. prior to loading with Doxorubicin.
# 2. Add 1 ml of 10 μg/ml doxorubicin, mix and divide into two aliquots.
# 4. Incubate both tubes at 37° C. for 30 minutes.
# 5. Centrifuge the tubes at 37° C. for 5 minutes on a fast spin to pellet cells. Resuspend in 1 ml of buffer.
# 6. Run immediately on the flow cytometer. Excitation 488 nm, emission 560-600 nm. Collect forward and 90° side scatter and PMT4 linear scale. Collect 10,000-50,000 events and calculate the mean channel fluorescence (MCF) for PMT4.
# 7. Run both samples as close together as possible, and avoid prolonged exposure to room temperature.
# [8] = test system: Hs 68 Newborn Foreskin Fibroblasts; assay: in vitro cytotoxicity, normal cells; type: cell-based; settings: Homo sapiens, read-out: IC50
# Lung (LX-1) cancer cells = assay: in vitro cytotoxicity anti tumor activity; type: cell-based; settings: 1 h; One Hour Pulse Treatment; read-out: IC50
# [9] = test system: GRC-1 multidrug resistant human cervical carcinoma cells; assay: inhibition of colony formation, GRC-1; type: cell-based; settings: Homo sapiens, 240 h, read-out: IC50 (Masoprocol), 50% inhibition of colony formation; 10 days, 37° C.; parenthesis: standard deviation
# Source text: To investigate whether masoprocol modulates multidrug resistance, a line of multidrug resistant (GRC-1) cells which were derived from parenteral drug sensitive human cervical carcinoma (KB-3-1) cells by transfection of the mdr1 genes were employed. Such transfection was by the method set forth in Choi, et al., Cell 53:519-529, 1989. These cell lines differ only with respect to the over-expression of P-glycoprotein. These tests were designed to examine whether masoprocol modulates tumor cell drug resistance by interfering with P-glycoprotein function. […] See, Regulation of initial vinblastine influx by P-glycoprotein, Shalinsky, et al., cited above.
# Masoprocol was provided by Chemex Pharmaceuticals, Inc. (Fort Lee, N.J.). Tritiated vinblastine ([^3 H]VBL) (10 Ci mmol^-1) was purchased from Moravek Biochemicals (Brea, Calif.), stored in the dark at -80° C. and protected from light during the experiments. Dipyridamole (DPM) was provided by Boerhinger Ingelheim Pharmaceuticals, Inc. (Ridgefield, Conn.).
# as §1
# First, cells which had been seeded at 200-300 cells/dish were incubated in media containing masoprocol or VBL. After an incubation period of 10 days at 37° C. the cells were fixed with methanol and stained with Giemsa, and the number of colonies per dish were counted and expressed as a percent of the number of colonies in control conditions. […] Parenthesis indicate standard deviations determined from replicate experiments.
# [10] = Continuous Drug Exposure, observation at 70 hours
smiles,measurement,setting,value
"C[C@H](Cc1ccc(O)c(O)c1)[C@@H](C)Cc1ccc(O)c(O)c1 [Masoprocol, meso-1,4-bis (3,4-dihydroxyphenyl)-2,3-dimethylbutane]",effect on VBL cytotoxicity / colony formation,[1],increase in the cytotoxicity of VBL; also recorded: increases the cytotoxic effect of VBL
same,stimulation of tumor cell growth,human cancer patients; in some cases,in some cases caused stimulation of tumor cell growth
same,effectiveness as anticancer agent,human cancer patients; ingested tea made from creosote bush or pure NDGA,neither NDGA nor the tea were effective anticancer agents
same,IC50,"CAK-1 Renal cancer cells; 1 h, One Hour Pulse Treatment",211 µM
same,IC50,CAK-1 Renal cancer cells; [10],53.4 µM
same,IC50,"[2]; OVCAR-3, 1 h, One Hour Pulse Treatment",258 µM
same,IC50,"[2]; OVCAR-3, Continuous Drug Exposure, observation at 70 hours",35.9 µM
same,IC50,"[3]; Detroit 551, 1 h, One Hour Pulse Treatment",62.7 µM
same,IC50,"[3]; Detroit 551, Continuous Drug Exposure, observation at 70 hours",312 µM
same,IC50,"LOX-IMVI Melanoma cells; 1 h, One Hour Pulse Treatment",38.4 µM
same,IC50,LOX-IMVI Melanoma cells; [10],0.08 µM
same,result in screening against cancer cells,[4],negative results
same,initial VBL uptake (influx),[5],substantial increase in initial VBL uptake; also recorded: effective modulator of initial VBL influx; also recorded: promotes the initial uptake of VBL
same,IC50,"[6]; NCI-H23, 1 h, One Hour Pulse Treatment",172 µM
same,IC50,"[6]; NCI-H23, Continuous Drug Exposure, observation at 70 hours",0.08 µM
same,activation at 50 µg/mL,"[7]; Homo sapiens, MCF7, 24 h, read-out: % DOX increase w/NDGA",44.5%
same,DOX loading / retention / accumulation (in words),[7]; sensitive cells,loading more DOX after NDGA treatment than controls or verapamil treated cells
same,IC50,"[8]; Hs68, 1 h, One Hour Pulse Treatment",178 µM
same,IC50,"[8]; Hs68, Continuous Drug Exposure, observation at 70 hours",18 µM
same,IC50,Lung (LX-1) cancer cells,18 µM
same,IC50,[9],66.8 µM
